# From patent publication US20170291905A1, “ARGININE […] INHIBITORS AND USES THEREOF” (Epizyme, Inc., priority 2014, published 2017)
# Counter-ions that a name gives are not always drawn.
# Target: full-length human PRMT8 isoform 1 (Homo sapiens, UniProt Q9NR22)
# Test: PRMT8 biochemical assay (3H-SAM Flashplate, histone H4 31-45 peptide)
# Settings: 1.5 nM PRMT8, 30 min preincubation, 150 nM peptide
# Description: S-adenosylmethionine (SAM), S-adenosylhomocysteine (SAH), bicine, Tween20, dimethylsulfoxide (DMSO), bovine skin gelatin (BSG), isopropyl-β-D-thiogalactopyranoside (IPTG), and Tris(2-carboxyethyl)phosphine hydrochloride solution (TCEP) were purchased from Sigma-Aldrich at the highest level of purity possible. ^3H-SAM was purchase from American Radiolabeled Chemicals with a specific activity of 80 Ci/mmol. 384-well streptavidin Flashplates were purchased from PerkinElmer.
# Peptide representative of human histone H4 residues 31-45 was synthesized with an N-terminal linker-affinity tag motif and a C-terminal amide cap by 21st Century Biochemicals. The peptide was purified by high-performance liquid chromatography (HPLC) to greater than 95% purity and confirmed by liquid chromatography mass spectrometry (LC-MS). The sequence was Biot-Ahx-[…]-amide (SEQ ID NO.:8).
# The resulting construct encodes an N-terminal GST tag and a thrombin cleavage sequence
# E. coli (BL21(DE3) Gold, Stratagene) made competent by the CaCl2 method were transformed with the PRMT8 construct and ampicillin selection. Protein over-expression was accomplished by growing the PRMT8 expressing E. coli clone and inducing expression with 0.3 mM IPTG at 16° C. The culture was grown for 12 hours, harvested by centrifugation, and stored at −80° C. for purification.
# GST-tagged PRMT8 was eluted with 50 mM Tris, 2 mM glutathione, pH 7.8. Pooled fractions were cleaved by thrombin (10U) and dialysed in buffer A. GST was removed by reloading the cleaved protein sample onto glutathione sepharose column and PRMT8 was collected in the flow-through fractions. PRMT8 was purified further by ceramic hydroxyapatite chromatography. The column was washed with 50 mM phosphate buffer, 100 mM NaCl, 5% glycerol, 5 mM […], pH 7.8 and PRMT8 was eluted by 100 mM phosphate in the same buffer. Protein was concentrated and buffer was exchanged to 50 mM Tris, 300 mM NaCl, 10% glycerol, 5 mM β-mercaptoethanol, pH 7.8 by ultrafiltration. The purity of recovered protein was 89%.
# General Procedure for PRMT8 Enzyme Assays on Peptide Substrates.
# The assays were all performed in a buffer consisting of 20 mM Bicine (pH=7.6), 1 mM TCEP, 0.005% BSG, and 0.002% Tween 20, prepared on the day of use. Compounds in 100% DMSO (1 ul) were spotted into a polypropylene 384-well V-bottom plates (Greiner) using a Platemate Plus outfitted with a 384-channel head (Thermo Scientific). DMSO (1 ul) was added to Columns 11, 12, 23, 24, rows A-H for the maximum signal control and 1 ul of SAH, a known product and inhibitor of PRMT8, was added to columns 11, 12, 23, 24, rows I-P for the minimum signal control. A cocktail (40 ul) containing the PRMT8 enzyme was added by Multidrop Combi (Thermo-Fisher). The compounds were allowed to incubate with PRMT8 for 30 min at room temperature, then a cocktail (10 ul) containing ^3H-SAM and peptide was added to initiate the reaction (final volume=51 ul). The final concentrations of the components were as follows: PRMT8 was 1.5 nM, ^3H-SAM was 50 nM, non-radiolabeled SAM was 550 nM, peptide was 150 nM, SAH in the minimum signal control wells was 1 mM, and the DMSO concentration was 2%. The assays were stopped by the addition of non-radiolabeled SAM (10 ul) to a final concentration of 400 uM, which dilutes the ^3H-SAM to a level where its incorporation into the peptide substrate is no longer detectable. 50 ul of the reaction in the 384-well polypropylene plate was then transferred to a 384-well Flashplate and the biotinylated peptides were allowed to bind to the streptavidin surface for at least 1 hour before being washed once with 0.1% Tween20 in a Biotek ELx405 plate washer. The plates were then read in a PerkinElmer TopCount plate reader to measure the quantity of ^3H-labeled peptide bound to the Flashplate surface, measured as disintegrations per minute (dpm) or alternatively, referred to as counts per minute (cpm). […]
# Sequence of full-length human PRMT8 isoform 1 (Q9NR22 whole entry, canonical isoform): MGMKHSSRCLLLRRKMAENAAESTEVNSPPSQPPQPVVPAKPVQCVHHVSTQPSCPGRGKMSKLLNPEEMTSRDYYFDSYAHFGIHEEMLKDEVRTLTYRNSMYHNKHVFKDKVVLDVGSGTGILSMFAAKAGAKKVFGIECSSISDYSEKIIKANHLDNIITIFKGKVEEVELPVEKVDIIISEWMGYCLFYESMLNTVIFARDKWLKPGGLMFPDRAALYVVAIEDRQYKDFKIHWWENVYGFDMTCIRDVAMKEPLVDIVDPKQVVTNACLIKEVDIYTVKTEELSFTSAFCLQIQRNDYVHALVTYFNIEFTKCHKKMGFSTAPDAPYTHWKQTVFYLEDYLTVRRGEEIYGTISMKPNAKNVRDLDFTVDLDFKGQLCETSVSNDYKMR
row,IC50,Structure (SMILES)
1,67.6 nM,"CNCCN(C)Cc1c[nH]nc1[C@@H]1CC[C@@H](OCCCOC)C2(CCCC2)C1 (racemic) [compound 26, N1-((3-((7R,10R)-10-(3-methoxypropoxy)spiro[4.5]decan-7-yl)-1H-pyrazol-4-yl)methyl)-N1,N2-dimethylethane-1,2-diamine]"
2,31.2 nM,"CNCCN(C)Cc1c[nH]nc1[C@@H]1CC[C@H](OCCCOC)C2(CCCC2)C1 (racemic) [compound 27, N1-((3-((7R,10S)-10-(3-methoxypropoxy)spiro[4.5]decan-7-yl)-1H-pyrazol-4-yl)methyl)-N1,N2-dimethylethane-1,2-diamine]"
3,365 nM,CNCCN(C)Cc1c[nH]nc1C1CC(COCC2CC2)CC(COCC2CC2)C1 (centres unmarked) [compound 2]
4,32.8 nM,CNCCN(C)Cc1c[nH]nc1[C@H]1CC[C@@]2(CCCCO2)CC1 [compound 3]
5,16 nM,"CNCCN(C)Cc1c[nH]nc1[C@H]1CC[C@]2(CCCOC2)CC1 [compound 4, N1-((3-((6s,9s)-2-oxaspiro[5.5]undecan-9-yl)-1H-pyrazol-4-yl)methyl)-N1,N2-dimethylethane-1,2-diamine]"
6,17.7 nM,"CNCCN(C)Cc1c[nH]nc1[C@H]1CC[C@@]2(CCCOC2)CC1 [compound 5, N1-((3-((6r,9r)-2-oxaspiro[5.5]undecan-9-yl)-1H-pyrazol-4-yl)methyl)-N1,N2-dimethylethane-1,2-diamine]"
7,62.4 nM,CNCCN(C)Cc1c[nH]nc1C1CCC(COCC(C)C)(COCC(C)C)CC1 [compound 6]
8,11.1 nM,"CNCCN(C)Cc1c[nH]nc1C1CCC2(CCC(OC)CC2)CC1 (centres unmarked) [compound 9, N1-((3-(9-methoxyspiro[5.5]undecan-3-yl)-1H-pyrazol-4-yl)methyl)-N1,N2-dimethylethane-1,2-diamine]"
9,106 nM,CNCCN(C)Cc1c[nH]nc1[C@H]1CC[C@]2(CCN(CCC(C)C)C2=O)CC1 [compound 10]
10,10.2 nM,"CNCCN(C)Cc1c[nH]nc1[C@H]1CC[C@@]2(CCN(CCC(C)C)C2=O)CC1 [compound 11, (5r,8r)-2-isopentyl-8-(4-((methyl(2-(methylamino)ethyl)amino)methyl)-1H-pyrazol-3-yl)-2-azaspiro[4.5]decan-1-one]"
11,> 10000 nM,CNCCN(C)Cc1c[nH]nc1C1C[C@@H](C(=O)N(C)CC(C)C)C(C)(C)[C@H](C(=O)N(C)CC(C)C)C1 (some centres unmarked) [compound 12]
12,> 10000 nM,CNCCN(C)Cc1c[nH]nc1C1C[C@H](C(=O)NCCOC)C(C)(C)[C@H](C(=O)NCCOC)C1 (some centres unmarked) [compound 13]
13,15.3 nM,"CNCCN(C)Cc1c[nH]nc1C1=CCC(CF)(CF)CC1 [compound 15, N-((3-(4,4-bis(fluoromethyl)cyclohex-1-en-1-yl)-1H-pyrazol-4-yl)methyl)-N1,N2-dimethylethane-1,2-diamine]"
14,26.4 nM,"CNCCN(C)Cc1c[nH]nc1C1=CCC(COCC(F)(F)F)CC1 (centres unmarked) [compound 16, N1,N2-dimethyl-N1-((3-(4-((2,2,2-trifluoroethoxy)methyl)cyclohex-1-en-1-yl)-1H-pyrazol-4-yl)methyl)ethane-1,2-diamine]"

row,Structure (SMILES),IC50
1,"CNCCN(C)Cc1c[nH]nc1C1CCC(OCCCOC)C2(CCCC2)C1 (mixture of isomers) [compound 19, N1-((3-(10-(3-methoxypropoxy)spiro[4.5]decan-7-yl)-1H-pyrazol-4-yl)methyl)-N1,N2-dimethylethane-1,2-diamine dihydrochloride]",30.1 nM
2,"CCN(C)C(=O)C1CC(c2n[nH]cc2CN(C)CCNC)CC(C(=O)NCCC(C)C)C1(C)C (centres unmarked) [compound 14, N1-ethyl-N3-isopentyl-N1,2,2-trimethyl-5-(4-((methyl(2-(methylamino)ethyl)amino)methyl)-1H-pyrazol-3-yl)cyclohexane-1,3-dicarboxamide]",> 10000 nM
3,"CNCCN(C)Cc1c[nH]nc1C1CCC(C)(C)[C@H](OCC(C)C)C1 (stereo partly drawn) [compound 20, ({3-[(3R)-4,4-dimethyl-3-(2-methylpropoxy)cyclohexyl]-1H-pyrazol-4-yl}methyl)(methyl)[2-(methylamino)ethyl]amine]",24.5 nM
